Where two headings read alike, the source gives them in different places.

Experimental findings from patent publication EP1435941B1 (ARIZONA BOARD OF REGENTS on behalf of THE UNIVERSITY OF …, priority 2001, dated 2003) are described below.

For one data set, the system named is C57BL6 mice. Put plainly: Toxicity in mice, intraperitoneal daily for 4 days (MTD, differential blood counts, serum chemistry). It counts as in vivo. The following applies: for Maximum tolerated dose: Ip qD x 4, MTD=>10% body weight loss, C57BL6 mice; for Liver toxicity relative to wortmannie: mean percent increase in serum ALT and AST at the MTD or highest dose tested; for Liver toxicity relative to wortmannie / Lymphocyte toxicity relative to wortmannin: wortmannin as 1.0; for Lymphocyte toxicity relative to wortmannin: percent decrease in lymphocyte counts at the MTD or highest dose tested. The text has this:
(§1) Highlighted are the compounds being made for antitumor testing.

The target of data set [1] is phesphatidylinositol-3-kinase. Put plainly: PI-3 kinase enzyme inhibition. It counts as biochemical. The following applies: read-out: P1-3 kinase Inhibition IC50.
Excerpt: as §1

The next data set concerns the target mTOR. The data set can be described thus: mTOR enzyme inhibition. It counts as biochemical. The following applies: dose to cause 50% inhibition.
Excerpt: as §1

In data set [2] the test system is NCl cell panel. The data set can be described thus: Cytotoxicity, MTT assay. The following applies: read-out: cytotoxieity NCl cell panel IC50. A general note: Formazan colour is commonly taken as a measure of viable cells.
For data set [3], the system named is NCl cell panel. The following applies: nci cell panel, 48 h.
The mark [4] stands for this setting: 2 day MTT assay, mean of 60 cell lines.

A word on the IC50: it is the concentration that gives 50% inhibition. For the compound `COC[C@H]1OC(=O)/C(=C/NC(C)C(=O)O)C2=C(O)C(=O)C3=C([C@H](OC(C)=O)C[C@]4(C)C(=O)CC[C@@H]34)[C@]21C` (stereo partly drawn) [DJM2-177], in the data set on C57BL6 mice, the Maximum tolerated dose worked out at 6 mg/kg. Further, in the data set with C57BL6 mice, the “Liver toxicity relative to wortmannie” value is recorded as 0.2. In addition, the “Lymphocyte toxicity relative to wortmannin” value in the data set on C57BL6 mice came to 2.0. Also, the half-inhibitory concentration (IC50) in data set [1] (dose to cause 50% inhibition) came out at 300 nM; against mTOR, 1500 nM; in the data set on NCl cell panel [2] (setting [4]), 10200 nM.

Take `COC[C@H]1OC(=O)C(=CN(C)Cc2ccccc2)C2=C(O)C(=O)C3=C([C@H](OC(C)=O)C[C@]4(C)C(=O)CC[C@@H]34)[C@]21C` [DJM2-181, Acetic acid 4-[(benzylmethylamino)methylene]-6-hydroxy-1α-methoxymethyl-10β,13β-dimethyl-3,7,17-trioxo-1,3,4,7,10,11β,12,13, 14α,15,16,17-dodecahydro-2-oxa-cyclopenca[a]phenanthren-11-yl ester]: in the data set on C57BL6 mice, the Maximum tolerated dose is reported as greater than 18 mg/kg. Besides, the IC50 in data set [1] (dose to cause 50% inhibition) is 100 nM; against mTOR, greater than 3000 nM; in the data set with NCl cell panel [3] it was 700 nM.

Turning to `COC[C@H]1OC(=O)/C(=C/N2CCCC2)C2=C(O)C(=O)C3=C([C@H](OC(C)=O)C[C@]4(C)C(=O)CC[C@@H]34)[C@]21C` [DJM2-167, Acetic acid 6-hydroxy-1α-methoxymethyl-10β,13β-dimethyl-3,7,17-trioxo-4-pyrrolidin-1-yl-methylene-1,3,4,7,10,11β,12,13,14α,15,16,17-dodecahydro-2-oxa-cyclopenta[a]phenanthren-11-yl], the results for the concentration for half-maximal inhibition (IC50) (in data set [1] (dose to cause 50% inhibition); in the data set with NCl cell panel [3]) were 1100 nM and 500 nM, respectively.

In the case of `COC[C@H]1OC(=O)/C(=C/NCC(N)=O)C2=C(O)C(=O)C3=C([C@H](OC(C)=O)C[C@]4(C)C(=O)CC[C@@H]34)[C@]21C` [DJM2-190], in the data set with C57BL6 mice, the “Lymphocyte toxicity relative to wortmannin” value is 0.6. Moreover, the concentration for half-maximal inhibition (IC50) in data set [1] (dose to cause 50% inhibition) is 10000 nM; at mTOR, greater than 3000 nM; in the data set on NCl cell panel [2] (setting [4]) it was 33000 nM.

As to `COC[C@H]1OC(=O)/C(=C/SCc2ccccc2)C2=C(O)C(=O)C3=C([C@H](OC(C)=O)C[C@]4(C)C(=O)CC[C@@H]34)[C@]21C` [DJM2-170], in the data set with C57BL6 mice, the Maximum tolerated dose came to 9 mg/kg, the “Liver toxicity relative to wortmannie” value amounted to 1.7 and the “Lymphocyte toxicity relative to wortmannin” value came out at 1.1. Besides, the IC50 in data set [1] (dose to cause 50% inhibition) is 1000 nM. The same compound returned an IC50 on mTOR greater than 3000 nM. The IC50 with NCl cell panel [2] (setting [4]) was found to be 7100 nM.

`COC[C@H]1OC(=O)c2coc3c2[C@@]1(C)C1=C(C3=O)[C@@H]2CCC(=O)[C@@]2(C)C[C@H]1OC(C)=O` [wortmannin, reference compound]: the concentration for half-maximal inhibition (IC50) was 300 nM in data set [1] and 8900 nM in the data set on NCl cell panel [2] (Homo sapiens, 60 cell, 48 h).
